Assays:
Assay type in all cases: cell-based, human
[1] = test system: senescent fibroblasts (passage 37); experiment: Cell proliferation and formation of cell colonies (crystal violet staining); conditions: CP-466722; staining after 4 days
Method: A human fibroblast cell line was inoculated into a Dulbecco's Modified Eagle's medium (DMEM) containing 10% fetal bovine serum (FBS), 100 units/ml of penicillin, and 100 μg/ml of streptomycin (wherein these two antibiotics were purchased from Gibro-BRL, Grand Island, N.Y.), and then, cultured in a 5% CO2 incubator at a temperature of 37° C. The fibroblast cell line (i.e., M11 strain) was a cell line derived from the foreskin of a child. When the cells were grown to about 85% confluency in a plate, the cells were subjected to subculture. The early subculture was carried out at a split ratio of 1:4, and the late subculture was carried out at a split ratio of 1:2. When the cell doubling time was 14 days, the cells were considered to be senescent fibroblasts (passages 35 to 37).
To determine the optimal concentration upon the treatment with an ATM-kinase inhibitor KU-60019 (SELLECKCHEM, S1570, salt), the senescent fibroblasts (passage 37) were inoculated into each well of a 6-well plate at a concentration of 2,000 cells/well, and then, KU-60019 was added to each well of the 6-well plate ([…]). In addition, as a negative control group, the cells were cultured under the same conditions as described above, except that a medium used herein contained a dimethyl sulfoxide (DMSO) (0.05 (v/v) %) medium. […]

[2] = test system: progeria senescent fibroblasts (passage 17); experiment: Lipofuscin autofluorescence (FACS); conditions: CP-466722 0.1 μM, 4 weeks
Method: In addition, the amounts of lipofuscin in the cells cultured as described above were measured. The progeria senescent fibroblasts (passage 17) that became senescent in the presence of KU-60019 (0.5 μM) were cultured in a CO2 incubator at a temperature of 37° C. for 4 weeks. The medium was replaced by a fresh medium containing KU-60019 (0.5 μM), once every 4 days. Lipofuscin is characterized by having autofluorescence capability, and in this regard, the cultured cells were irradiated with a wavelength of 488 nm by using a FACSCaliber (Beckton Dickinson), and then, measured with radiation emitted from a wavelength of 520 nm. The results were analyzed using Cell Quest 3.2 software (Beckton Dickinson). FIG. 11 is a graph showing lipofuscin measured in the cells that were cultured in the presence of KU-60019.
In addition, the amounts of lipofuscin in the cells cultured as described above were measured. […] Lipofuscin is characterized by having autofluorescence capability, and in this regard, the cultured cells were irradiated with a wavelength of 488 nm by using a FACSCaliber (Beckton Dickinson), and then, measured with radiation emitted from a wavelength of 520 nm. The results were analyzed using Cell Quest 3.2 software (Beckton Dickinson).

[3] = test system: progeria senescent fibroblasts (passage 17); experiment: Mitochondrial membrane potential (JC-1); conditions: CP-466722 0.1 μM
Method: The mitochondrial activity potential (i.e., mitochondrial membrane potential) was measured according to the protocol of the manufacturer of the MitoProbe™ JC-1 assay kit for flow cytometry (Life technologies: T3168). […] Consequently, mitochondrial depolarization is indicated by a decrease in the red/green fluorescence intensity ratio. The cultured cells were analyzed by flow cytometry by using an FACSCaliber (Beckton Dickinson) using excitation at a wavelength of 488 nm, and band-pass emission light filters at a wavelength of 530/30 nm and 585/42 nm. The results were analyzed using Cell Quest 3.2 software (Beckton Dickinson). FIG. 12 is a graph showing results of measuring mitochondrial activity potential (B) of the cultured cells. […]
The mitochondrial activity potential (i.e., mitochondrial membrane potential) was measured according to the protocol of the manufacturer using the MitoProbe™ JC-1 assay kit for flow cytometry (Life technologies: T3168). […] Consequently, mitochondrial depolarization is indicated by a decrease in the red/green fluorescence intensity ratio. The cultured cells were analyzed by flow cytometry by using an FACSCaliber (Beckton Dickinson) using excitation at a wavelength of 488 nm, and band-pass emission light filters at a wavelength of 530/30 nm and 585/42 nm. The results were analyzed using Cell Quest 3.2 software (Beckton Dickinson).

COc1cc2ncnc(-n3nc(-c4ccccn4)nc3N)c2cc1OC [CP-466722, 2-(6,7-dimethoxyquinazolin-4-yl)-5-(pyridin-2-yl)-2H-1,2,4-triazol-3-amine]
concentration producing best results in the cell proliferation and the formation of cell colonies [1]: 0.1 µM
amount of lipofuscin vs control [2]: significantly decreased
mitochondrial activity potential vs control [3]: significantly increased

Reference: patent US9770451B2, “Composition including ATM inhibitor for reducing cellular senescence and use of the composition” (Samsung Electronics Co., Ltd., priority 2014, dated 2017)
